In the CheMixHub viscosity set:

Assay: xn = mol fraction of the nth substance listed

[Cl-].[Cl-].[Sr+2] + O
Conditions | viscosity [mPa·s]
293.15 K, 100 kPa, x1 = 0.0048 | 1.08
293.15 K, 100 kPa, x1 = 0.01 | 1.172
293.15 K, 100 kPa, x1 = 0.016 | 1.283
293.15 K, 100 kPa, x1 = 0.0302 | 1.607
293.15 K, 100 kPa, x1 = 0.0452 | 2.065
293.15 K, 101.3 kPa, x1 = 0.0009 | 1.018
293.15 K, 101.3 kPa, x1 = 0.0018 | 1.032
293.15 K, 101.3 kPa, x1 = 0.00893 | 1.146
293.15 K, 101.3 kPa, x1 = 0.0177 | 1.312
293.15 K, 101.3 kPa, x1 = 0.02631 | 1.515
293.15 K, 101.3 kPa, x1 = 0.03478 | 1.722
293.15 K, 101.3 kPa, x1 = 0.0431 | 1.994
298.15 K, 100 kPa, x1 = 0.0048 | 0.9628
298.15 K, 100 kPa, x1 = 0.01 | 1.048
298.15 K, 100 kPa, x1 = 0.016 | 1.152
298.15 K, 100 kPa, x1 = 0.0302 | 1.447
298.15 K, 100 kPa, x1 = 0.0452 | 1.862
298.15 K, 101.3 kPa, x1 = 0.0009 | 0.9055
298.15 K, 101.3 kPa, x1 = 0.0018 | 0.9188
298.15 K, 101.3 kPa, x1 = 0.00893 | 1.025
298.15 K, 101.3 kPa, x1 = 0.0177 | 1.179
298.15 K, 101.3 kPa, x1 = 0.02631 | 1.364
298.15 K, 101.3 kPa, x1 = 0.03478 | 1.552
298.15 K, 101.3 kPa, x1 = 0.0431 | 1.797
303.15 K, 101.3 kPa, x1 = 0.0009 | 0.8117
303.15 K, 101.3 kPa, x1 = 0.0018 | 0.8241
303.15 K, 101.3 kPa, x1 = 0.00893 | 0.9228
303.15 K, 101.3 kPa, x1 = 0.0177 | 1.065
303.15 K, 101.3 kPa, x1 = 0.02631 | 1.236
303.15 K, 101.3 kPa, x1 = 0.03478 | 1.408
303.15 K, 101.3 kPa, x1 = 0.0431 | 1.63
308.15 K, 101.3 kPa, x1 = 0.0009 | 0.7325
308.15 K, 101.3 kPa, x1 = 0.0018 | 0.7443
308.15 K, 101.3 kPa, x1 = 0.00893 | 0.8365
308.15 K, 101.3 kPa, x1 = 0.0177 | 0.9688
308.15 K, 101.3 kPa, x1 = 0.02631 | 1.127
308.15 K, 101.3 kPa, x1 = 0.03478 | 1.284
308.15 K, 101.3 kPa, x1 = 0.0431 | 1.487
313.2 K, 100 kPa, x1 = 0.0302 | 1.096
313.56 K, 100 kPa, x1 = 0.0048 | 0.7071
313.9 K, 100 kPa, x1 = 0.01 | 0.7701
314.54 K, 100 kPa, x1 = 0.0452 | 1.374
315.86 K, 100 kPa, x1 = 0.016 | 0.8261
318.15 K, 101.3 kPa, x1 = 0.0009 | 0.6082
318.15 K, 101.3 kPa, x1 = 0.0018 | 0.6186
318.15 K, 101.3 kPa, x1 = 0.00893 | 0.6997
318.15 K, 101.3 kPa, x1 = 0.0177 | 0.8151
318.15 K, 101.3 kPa, x1 = 0.02631 | 0.9514
318.15 K, 101.3 kPa, x1 = 0.03478 | 1.086
318.15 K, 101.3 kPa, x1 = 0.0431 | 1.258

CCCCC + CCCCCCCCCCCC
Conditions | viscosity [mPa·s]
293.15 K, 100 kPa, x1 = 0.0988 | 1.33
293.15 K, 100 kPa, x1 = 0.2004 | 1.153
293.15 K, 100 kPa, x1 = 0.2963 | 0.995
293.15 K, 100 kPa, x1 = 0.4022 | 0.847
293.15 K, 100 kPa, x1 = 0.5005 | 0.686
293.15 K, 100 kPa, x1 = 0.5989 | 0.581
293.15 K, 100 kPa, x1 = 0.7029 | 0.468
293.15 K, 100 kPa, x1 = 0.8 | 0.388
293.15 K, 100 kPa, x1 = 0.9011 | 0.304
298.15 K, 100 kPa, x1 = 0.0988 | 1.216
298.15 K, 100 kPa, x1 = 0.2004 | 1.054
298.15 K, 100 kPa, x1 = 0.2963 | 0.923
298.15 K, 100 kPa, x1 = 0.4022 | 0.79
298.15 K, 100 kPa, x1 = 0.5005 | 0.642
298.15 K, 100 kPa, x1 = 0.5989 | 0.548
298.15 K, 100 kPa, x1 = 0.7029 | 0.443
298.15 K, 100 kPa, x1 = 0.8 | 0.369
298.15 K, 100 kPa, x1 = 0.9011 | 0.289
298.15 K, 101.33 kPa, x1 = 0.1094 | 1.194
298.15 K, 101.33 kPa, x1 = 0.2073 | 1.037
298.15 K, 101.33 kPa, x1 = 0.299 | 0.9143
298.15 K, 101.33 kPa, x1 = 0.4078 | 0.7711
298.15 K, 101.33 kPa, x1 = 0.5008 | 0.6622
298.15 K, 101.33 kPa, x1 = 0.6031 | 0.5504
298.15 K, 101.33 kPa, x1 = 0.7069 | 0.4481
298.15 K, 101.33 kPa, x1 = 0.8062 | 0.3631
298.15 K, 101.33 kPa, x1 = 0.8991 | 0.2925
303.15 K, 100 kPa, x1 = 0.0988 | 1.119
303.15 K, 100 kPa, x1 = 0.2004 | 0.975
303.15 K, 100 kPa, x1 = 0.2963 | 0.857
303.15 K, 100 kPa, x1 = 0.4022 | 0.738
303.15 K, 100 kPa, x1 = 0.5005 | 0.603
303.15 K, 100 kPa, x1 = 0.5989 | 0.516
303.15 K, 100 kPa, x1 = 0.7029 | 0.42
303.15 K, 100 kPa, x1 = 0.8 | 0.358
303.15 K, 100 kPa, x1 = 0.9011 | 0.275
308.15 K, 100 kPa, x1 = 0.0988 | 1.032
308.15 K, 100 kPa, x1 = 0.2004 | 0.906
308.15 K, 100 kPa, x1 = 0.2963 | 0.8
308.15 K, 100 kPa, x1 = 0.4022 | 0.693
308.15 K, 100 kPa, x1 = 0.5005 | 0.568
308.15 K, 100 kPa, x1 = 0.5989 | 0.489
308.15 K, 100 kPa, x1 = 0.7029 | 0.399
308.15 K, 100 kPa, x1 = 0.8 | 0.34
313.15 K, 100 kPa, x1 = 0.0988 | 0.957
313.15 K, 100 kPa, x1 = 0.2004 | 0.843
313.15 K, 100 kPa, x1 = 0.2963 | 0.748
313.15 K, 100 kPa, x1 = 0.4022 | 0.65
313.15 K, 100 kPa, x1 = 0.5005 | 0.536
313.15 K, 100 kPa, x1 = 0.5989 | 0.463
313.15 K, 100 kPa, x1 = 0.7029 | 0.38
318.15 K, 100 kPa, x1 = 0.0988 | 0.89
318.15 K, 100 kPa, x1 = 0.2004 | 0.789
318.15 K, 100 kPa, x1 = 0.2963 | 0.702
318.15 K, 100 kPa, x1 = 0.4022 | 0.612
318.15 K, 100 kPa, x1 = 0.5005 | 0.507
318.15 K, 100 kPa, x1 = 0.5989 | 0.44
323.15 K, 100 kPa, x1 = 0.0988 | 0.83
323.15 K, 100 kPa, x1 = 0.2004 | 0.734
323.15 K, 100 kPa, x1 = 0.2963 | 0.66
323.15 K, 100 kPa, x1 = 0.4022 | 0.578
323.15 K, 100 kPa, x1 = 0.5005 | 0.481

CCCCCCCO + O
Conditions | viscosity [mPa·s]
298.15 K, 101 kPa, x2 = 0.28 | 5.5

CCCCCCCCn1cc[n+](C)c1.O=[N+]([O-])[O-] + CCCCO
Conditions | viscosity [mPa·s]
293.15 K, 101 kPa, x2 = 0.168 | 378.7

CCCCC + CCCCCC
298.15 K, 101.33 kPa
Conditions | viscosity [mPa·s]
x1 = 0.1045 | 0.2898
x1 = 0.2098 | 0.2802
x1 = 0.3107 | 0.2724
x1 = 0.4113 | 0.2641
x1 = 0.5105 | 0.2574
x1 = 0.6025 | 0.2497
x1 = 0.7041 | 0.2432
x1 = 0.7966 | 0.2364
x1 = 0.8997 | 0.228

CCCCN(CCC#N)CCCC + O=S=O
303.15 K, 100 kPa
Conditions | viscosity [mPa·s]
x2 = 0.17 | 4.1
x2 = 0.34 | 8
x2 = 0.45 | 13.8

CCC[NH2+]CCO.O=C([O-])c1ccccc1O + O
100 kPa, x2 = 0.14
Conditions | viscosity [mPa·s]
298 K | 376.1
303 K | 261.8
313 K | 136.8
323 K | 78.08

CCOC(=O)C(C)O (configuration not stated) + CN1CCCC1=O
viscosity [mPa·s], 101 kPa
Conditions | 293.15 K | 313.15 K
x1 = 0.0999 | – | 1.525
x1 = 0.3001 | 2.585 | 1.765

CCCCC + C1CCOC1
viscosity [mPa·s], 101 kPa
Conditions | x2 = 0.1001 | x2 = 0.2001 | x2 = 0.3001 | x2 = 0.4001 | x2 = 0.5001 | x2 = 0.6001 | x2 = 0.7001 | x2 = 0.8001 | x2 = 0.9001
293.15 K | 0.2331 | 0.2498 | 0.2688 | 0.2894 | 0.3116 | 0.3371 | 0.3686 | 0.4034 | 0.4485
298.15 K | 0.2241 | 0.2405 | 0.258 | 0.2768 | 0.2977 | 0.3204 | 0.347 | 0.38 | 0.4212

C1CCCCCCC1 + C1CCCC1
101 kPa
Conditions | viscosity [mPa·s]
298.15 K, x1 = 0.0472 | 0.4501
298.15 K, x1 = 0.06 | 0.4609
298.15 K, x1 = 0.1203 | 0.5119
298.15 K, x1 = 0.1974 | 0.5838
298.15 K, x1 = 0.1982 | 0.5837
298.15 K, x1 = 0.2776 | 0.6681
298.15 K, x1 = 0.4053 | 0.824
298.15 K, x1 = 0.4083 | 0.827
298.15 K, x1 = 0.5052 | 0.968
298.15 K, x1 = 0.5909 | 1.116
298.15 K, x1 = 0.6747 | 1.276
298.15 K, x1 = 0.7902 | 1.55
298.15 K, x1 = 0.9049 | 1.895
303.15 K, x2 = 0.1036 | 1.684
303.15 K, x2 = 0.2009 | 1.421
303.15 K, x2 = 0.3014 | 1.205
303.15 K, x2 = 0.3972 | 1.031
303.15 K, x2 = 0.5003 | 0.8744
303.15 K, x2 = 0.5992 | 0.7468
303.15 K, x2 = 0.7036 | 0.6288
303.15 K, x2 = 0.8996 | 0.4555

CC(=O)CC(C)(C)O + OCc1ccccc1
298.15 K, 101 kPa
Conditions | viscosity [mPa·s]
x2 = 0.0518 | 2.886
x2 = 0.1087 | 3.021
x2 = 0.1705 | 3.199
x2 = 0.2406 | 3.41
x2 = 0.3325 | 3.67
x2 = 0.3445 | 3.703
x2 = 0.4344 | 3.968
x2 = 0.5378 | 4.295
x2 = 0.6345 | 4.596
x2 = 0.7171 | 4.831
x2 = 0.7554 | 4.935
x2 = 0.8122 | 5.096
x2 = 0.878 | 5.303
x2 = 0.9123 | 5.42
x2 = 0.9146 | 5.43
